Experimental data: patent US8691225B2, “Antibodies against the ectodomain of ErbB3 and uses thereof” (Merrimack Pharmaceuticals, Inc., priority 2007, dated 2014)
Substitutions are numbered along the chain they refer to. Where two headings read alike, the source gives them in different places. Blank lines part the entries; values can stand above or below the molecule they belong to.

Assays:
[1] = test system: ErbB3 phosphorylation in AdrR cells; assay: inhibitor dose response of ligand-induced ErbB3 phosphorylation (ELISA); assay type: cell-based, human; conditions: for IC50: Homo sapiens, 10 min
Procedure: Phosphorylation of ErbB3 is measured by ELISA (R&D Systems, DYC1769-5, per manufacturers protocol) and IC50 values are determined using Prism (GraphPad Software Inc.).

[2] = test system: SKOV3 subcutaneous xenograft tumors; assay: PI3K mutant SKOV3 subcutaneous xenograft tumors; assay type: in vivo, mouse; conditions: Ab #6 300 μg every three days; cisplatin 1.5 mg/kg; dosing after 30 day lag phase
Text: SKOV3 (SKOV-3) is an ovarian cancer cell line that comprises a mutation that upregulates PI3K expression.

[3] = test system: A549 subcutaneous xenograft tumors; assay: KRAS mutant A549 subcutaneous xenograft tumors; assay type: in vivo, mouse; conditions: Ab #6 300 μg every three days; erlotinib 25 mg/kg every day; taxol 20 mg/kg every 7 days
[4] = test system: ACHN (a renal tumor cell line) xenograft tumors; assay: ACHN xenograft combination therapy; assay type: in vivo, mouse; conditions: Ab #6 300 μg IP every three days; erlotinib 25 mg/kg orally once daily
Procedure: In a first experiment, mice bearing ACHN (a renal tumor cell line) xenograft tumors are prepared by establishing tumors subcutaneously in the flanks of nude mice (Charles River Laboratories).

[5] = test system: DU145 (a prostate tumor cell line) xenograft tumors; assay: DU145 xenograft combination therapy; assay type: in vivo, mouse; conditions: Ab #6 300 μg IP every three days; taxol 20 mg/kg IP once per week
Procedure: In a second experiment, mice bearing DU145 (a prostate tumor cell line) xenograft tumors are prepared by establishing tumors subcutaneously in the flanks of nude mice (Charles River Laboratories). […] Again, tumor size is measured twice a week and measurements are used to calculate tumor volume.

[6] = molecular target: ErbB3 (Homo sapiens, UniProt P21860); assay: paratope mapping: binding of Ab #6 scFv mutants to ErbB3; conditions: scFv format; compared with binding to Protein A
Procedure: FIG. 36 presents data from paratope mapping experiments.
This format is used to investigate the effect on ErbB3 binding of alanine (and in some cases phenylalanine) substitution mutations in the CDR loops.
All of the mutations are made using standard recombinant DNA techniques and binding of the mutants to ErbB3 is tested using standard screening techniques known in the art.

[7] = molecular target: T1, heregulin binding to ErbB3 on MALME-3M cells (Homo sapiens, UniProt P21860); assay: biotinylated heregulin binding to MALME3M cells by FACS; assay type: cell-based; conditions: 5 μM antibody, 20 nM heregulin EGF
T1 construct: ErbB3 expressed on MALME-3M melanoma cells; host or cells: MALME-3M melanoma cells
Procedure: After 30 minutes, 50 μl of 40 nM biotinylated heregulin EGF is added to the cells and incubated for another 10 minutes on ice. This yields a final concentration of 5 μM antibody and 20 nM heregulin EGF. Cells are then washed twice with 500 μl BD stain buffer and incubated with 100 μl of a 1:200 dilution of streptavidin-PE (PE=phycoerythrin) (Invitrogen) in BD stain buffer for 45 minutes. Finally, cells are washed twice, resuspended in 300 μl of BD stain buffer and analyzed in a FACSCALIBUR flow cytometer. As a positive control, 1×10^5 MALME3M cells are incubated with 20 nM heregulin EGF for 10 minutes on ice, washed twice and incubated with a 1:200 dilution of streptavidin-PE for 45 minutes. In order to assess background staining from the streptavidin-PE conjugate, 1×10^5 MALME3M cells are incubated with 100 μl of a 1:200 dilution of streptavidin-PE only for 45 minutes.

IC50 ([1]; 25 nM BTC, read-out: IC50, BTC-induced ErbB3 phosphorylation): 360 nM
IC50 ([1]; 25 nM HRG, read-out: IC50, HRG-induced ErbB3 phosphorylation): 150 nM
Molecule: CS(=O)(=O)CCNCc1ccc(-c2ccc3ncnc(Nc4ccc(OCc5cccc(F)c5)c(Cl)c4)c3c2)o1 [Lapatinib]

IC50, BTC-induced ErbB3 phosphorylation ([1]; 25 nM BTC, 10 minutes): did not inhibit
Molecule: Pertuzumab

Effect on ErbB3 Binding of Ab #6 Mutations [6]: no effect on binding
B1: M1: Ab #6 scFv mutant, H1 loop, Thr28Ala (antibody, chains of the INN, looked up, variant H:T28A, V domains shown)
VH: EVQLLESGGGLVQPGGSLRLSCAASGFAFSHYVMAWVRQAPGKGLEWVSSISSSGGWTLYADSVKGRFTISRDNSKNTLYLQMNSLRAEDTAVYYCTRGLKMATIFDYWGQGTLVTVSS
VL: QSALTQPASVSGSPGQSITISCTGTSSDVGSYNVVSWYQQHPGKAPKLIIYEVSQRPSGVSNRFSGSKSGNTASLTISGLQTEDEADYYCCSYAGSSIFVIFGGGTKVTVL
modifications: scFv

Effect on ErbB3 Binding of Ab #6 Mutations [6]: no effect on binding
B2: M3: Ab #6 scFv mutant, CDR H1, His31Ala (antibody, chains of the INN, looked up, variant H:H31A, V domains shown)
VH: B1 VH with A28T, H31A
VL: B1 VL
modifications: scFv

Effect on ErbB3 Binding of Ab #6 Mutations [6]: no effect on binding
B4: M5: Ab #6 scFv mutant, CDR H1, Tyr32Phe (antibody, chains of the INN, looked up, variant H:Y32F, V domains shown)
VH: B1 VH with A28T, Y32F
VL: B1 VL
modifications: scFv

Continued, molecule first:

Molecule: N.N.[Cl][Pt][Cl] [cisplatin]
tumor growth inhibition [2]: able to inhibit the growth of the SKOV3 xenografts

Molecule: C#Cc1cccc(Nc2ncnc3cc(OCCOC)c(OCCOC)cc23)c1 [erlotinib, reference compound]
tumor growth inhibition [3]: insensitive
inhibition of tumor growth (tumor volume) [4]: inhibit tumor growth

Molecule: CC(=O)O[C@H]1C(=O)[C@@]2(C)[C@H]([C@H](OC(=O)c3ccccc3)[C@]3(O)C[C@H](OC(=O)[C@H](O)[C@@H](NC(=O)c4ccccc4)c4ccccc4)C(C)=C1C3(C)C)[C@]1(OC(C)=O)CO[C@@H]1C[C@@H]2O [taxol, reference compound]
tumor growth inhibition [3]: insensitive
inhibition of tumor growth (tumor volume) [5]: inhibited tumor growth

B3: M4: Ab #6 scFv mutant, CDR H1, Tyr32Ala (antibody, chains of the INN, looked up, variant H:Y32A, V domains shown)
VH: B1 VH with A28T, Y32A
VL: B1 VL
modifications: scFv
Effect on ErbB3 Binding of Ab #6 Mutations [6]: large decrease in binding (based on the three groupings shown in FIG. 36)

B5: Ab/Fab #3: a Fab version of Ab #3 (antibody, V domains shown)
VH: EVQLLESGGGLVQPGGSLRLSCAASGFTFSAYNMRWVRQAPGKGLEWVSVIYPSGGATRYADSVKGRFTISRDNSKNTLYLQMNSLRAEDTAVYYCARGYYYYGMDVWGQGTLVTVSS
VL: QSVLTQPPSASGTPGQRVTISCSGSDSNIGRNYIYWYQQFPGTAPKLLIYRNNQRPSGVPDRISGSKSGTSASLAISGLRSEDEAEYHCGTWDDSLSGPVFGGGTKLTVL
inhibition of heregulin binding to ErbB3 [7]: able to inhibit heregulin binding to ErbB3
